Data as given in patent US9439982B2, “Fluorescent cyanine-polyamine derivatives as a diagnostic probe” (PIERRE FABRE MEDICAMENT, priority 2010, dated 2016).
Where “and” joins values, the source holds several entries; their conditions need not be identical. Equal entries are not always repeated.

Legend:
[1] = Tolerance of the injection of increasing doses of the probe in healthy mice; assay type: in vivo; conditions: healthy male C57B16 mice, 25, 50 and 100 μg
Protocol: (§1) 6 healthy male C57B16 mice, aged 11 weeks, were used to evaluate the tolerance of the injection of increasing doses of the probe of example 7 (F98942) (25, 50 and 100 μg). 11 male C57B16 mice aged 10 weeks were grafted subcutaneously on the right rear paw with 2.5.10^5 B16/F10-Luc mouse melanoma cells.
(§2) The probe F98942 is placed in solution in sterile 5% glucose serum extemporaneously.

[2] = test system: B16/F10-Luc mouse melanoma cells; assay: In vivo detection by fluorescence imaging of the probe accumulating in a tumour on an animal; conditions: for Tumour fixation: Fluorescence at t = 24 hrs: individual mice, 24 hrs post-injection, subcutaneous B16/F10-Luc tumour in C57B16 mice; for Tumour fixation: Mean fluorescence: 24 hrs; for Detection of the probe's fluorescence in the tumour in vivo: tumour B16F10 in mice, fluorescence imaging after intravenous injection
Protocol: as §1, §2
The mice were injected with 50 μg or 25 μg of F98942 or PBS (Phosphate Buffered Saline) intravenously. They were then anaesthetised by isoflurane gas inhalation (3% isoflurane/oxygen) prior to the fluorescence imaging examination 24 and 48 hours post-injection. After 48 hours, the tumours were removed and analysed by means of fluorescence imaging. […]

Compound	Tolerance of injection [1]	Tumour fixation: Fluorescence at t = 24 hrs ([2]; 25 μg intravenously)	Tumour fixation: Fluorescence at t = 24 hrs ([2]; 50 μg intravenously)	Tumour fixation: Mean fluorescence ([2]; mean of mice 1-4, 50 μg intravenously)	Tumour fixation: Mean fluorescence ([2]; mean of mice 5-6, 25 μg intravenously)	Detection of the probe's fluorescence in the tumour in vivo [2]
CCCCN1/C(=C/C=C/C=C/C=C/C2=[N+](CCCCCC(=O)NCCCNCCCCNCCCN)c3ccccc3C2(C)C)C(C)(C)c2ccccc21.[Br-] [Example F98942, 1-(5-{3-[4-(3-aminopropylamino)butylamino]-propylcarbamoyl}-pentyl)-2-{(1E,3E,5E)-7-[1-butyl-3,3-dimethyl-1,3-dihydroindol-(2E)-ylidene]-hepta-1,3,5-trienyl}-3,3-dimethyl-3H-indolium bromide]	well-tolerated regardless of the dose	1.52 · 10^7 [p/s/cm^2/sr]/[μW/cm^2] and 2.10 · 10^7 [p/s/cm^2/sr]/[μW/cm^2]	3.22 · 10^7 [p/s/cm^2/sr]/[μW/cm^2] and 3.08 · 10^7 [p/s/cm^2/sr]/[μW/cm^2] and 3.12 · 10^7 [p/s/cm^2/sr]/[μW/cm^2] and 3.01 · 10^7 [p/s/cm^2/sr]/[μW/cm^2]	3.14 · 10^7 [p/s/cm^2/sr]/[μW/cm^2]	1.81 · 10^7 [p/s/cm^2/sr]/[μW/cm^2]	detected
CC1(C)C(/C=C/C2=C(c3ccc(C(=O)NCCCNCCCCNCCCN)cc3)C(=C/C=C3/N(CCCCS(=O)(=O)O)c4ccc5ccccc5c4C3(C)C)/CCC2)=[N+](CCCCS(=O)(=O)[O-])c2ccc3ccccc3c21 [comparative probe, reference compound]	–	–	–	–	–	not detected
